ChEMBL document CHEMBL3758163, “Extended structure-activity study of thienopyrimidine-based EGFR inhibitors with evaluation of drug-like properties” (Eur J Med Chem, 2016)
Values belong to the compound of their own block, whether it stands above or below them.

Legend:
[1] = target: Mitogen-activated protein kinase 1 (Homo sapiens) (UniProt P28482); experiment: Inhibition of MAPK1 (unknown origin) at 500 nM
[2] = target: Vascular endothelial growth factor receptor 1 (Homo sapiens) (UniProt P17948); experiment: Inhibition of FLT1 (unknown origin) at 500 nM
[3] = target: Fibroblast growth factor receptor 1 (Homo sapiens) (UniProt P11362); experiment: Inhibition of FGFR1 (unknown origin) at 500 nM
[4] = target: Tyrosine-protein kinase Yes (Homo sapiens) (UniProt P07947); experiment: Inhibition of YES1 (unknown origin) at 500 nM
[5] = target: Dual specificity mitogen-activated protein kinase kinase 1 (Homo sapiens) (UniProt Q02750); experiment: Inhibition of MAP2K1 (unknown origin) at 500 nM
[6] = target: T1, Aurora kinase A (Homo sapiens) (UniProt O14965); experiment: Inhibition of AURKA (unknown origin) at 500 nM
T1 sequence (whole entry): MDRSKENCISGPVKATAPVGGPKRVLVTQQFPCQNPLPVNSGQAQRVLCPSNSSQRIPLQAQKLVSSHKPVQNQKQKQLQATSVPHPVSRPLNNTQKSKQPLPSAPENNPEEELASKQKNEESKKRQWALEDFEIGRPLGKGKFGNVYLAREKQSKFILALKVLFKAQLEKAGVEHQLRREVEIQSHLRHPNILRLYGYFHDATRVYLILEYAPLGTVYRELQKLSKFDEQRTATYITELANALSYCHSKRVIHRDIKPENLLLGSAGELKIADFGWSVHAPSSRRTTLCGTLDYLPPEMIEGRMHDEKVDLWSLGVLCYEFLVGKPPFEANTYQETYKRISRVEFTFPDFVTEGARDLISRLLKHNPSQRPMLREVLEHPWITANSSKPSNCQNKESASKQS

[7] = target: Protein kinase C beta type (Homo sapiens) (UniProt P05771); experiment: Inhibition of PRKCB1 (unknown origin) at 500 nM
[8] = target: Proto-oncogene tyrosine-protein kinase receptor Ret (Homo sapiens) (UniProt P07949); experiment: Inhibition of RET (unknown origin) at 500 nM
[9] = target: Tyrosine-protein kinase JAK2 (Homo sapiens) (UniProt O60674); experiment: Inhibition of JAK2 (unknown origin) at 500 nM
[10] = target: Serine/threonine-protein kinase PLK1 (Homo sapiens) (UniProt P53350); experiment: Inhibition of PLK1 (unknown origin) at 500 nM
[11] = target: Platelet-derived growth factor receptor beta (Homo sapiens) (UniProt P09619); experiment: Inhibition of PDGFRB (unknown origin) at 500 nM
[12] = target: Tyrosine-protein kinase CSK (Homo sapiens) (UniProt P41240); experiment: Inhibition of CSK (unknown origin) at 500 nM
[13] = target: Insulin-like growth factor 1 receptor (Homo sapiens) (UniProt P08069); experiment: Inhibition of IGF1R (unknown origin) at 500 nM
[14] = target: Tyrosine-protein kinase Fer (Homo sapiens) (UniProt P16591); experiment: Inhibition of FER (unknown origin) at 500 nM
[15] = target: Protein kinase C alpha type (Homo sapiens) (UniProt P17252); experiment: Inhibition of PRKCA (unknown origin) at 500 nM
[16] = target: Vascular endothelial growth factor receptor 2 (Homo sapiens) (UniProt P35968); experiment: Inhibition of KDR (unknown origin) at 500 nM
[17] = target: Tyrosine-protein kinase Fgr (Homo sapiens) (UniProt P09769); experiment: Inhibition of FGR (unknown origin) at 500 nM
[18] = target: Mitogen-activated protein kinase 8 (Homo sapiens) (UniProt P45983); experiment: Inhibition of MAPK8 (unknown origin) at 500 nM
[19] = target: Serine/threonine-protein kinase B-raf (Homo sapiens) (UniProt P15056); experiment: Inhibition of BRAF (unknown origin) at 500 nM
[20] = target: Tyrosine-protein kinase Lyn (Homo sapiens) (UniProt P07948); experiment: Inhibition of LYN A (unknown origin) at 500 nM
[21] = target: Focal adhesion kinase 1 (Homo sapiens) (UniProt Q05397); experiment: Inhibition of PTK2 (unknown origin) at 500 nM
[22] = target: Tyrosine-protein kinase HCK (Homo sapiens) (UniProt P08631); experiment: Inhibition of HCK (unknown origin) at 500 nM
[23] = target: Vascular endothelial growth factor receptor 3 (Homo sapiens) (UniProt P35916); experiment: Inhibition of FLT4 (unknown origin) at 500 nM
[24] = target: Receptor tyrosine-protein kinase erbB-2 (Homo sapiens) (UniProt P04626); experiment: Inhibition of ERBB2 (unknown origin) at 500 nM
[25] = target: Aurora kinase B (Homo sapiens) (UniProt Q96GD4); experiment: Inhibition of AURKB (unknown origin) at 500 nM
[26] = target: Receptor tyrosine-protein kinase erbB-4 (Homo sapiens) (UniProt Q15303); experiment: Inhibition of ERBB4 (unknown origin) at 500 nM
[27] = target: Epidermal growth factor receptor (Homo sapiens, UniProt P00533); experiment: Inhibition of EGFR (unknown origin) by Z -LYTE assay
[28] = target: Macrophage colony-stimulating factor 1 receptor (Homo sapiens) (UniProt P07333); experiment: Inhibition of CSF1R (unknown origin) at 500 nM
[29] = target: T2, Serine/threonine-protein kinase Chk1 (Homo sapiens) (UniProt O14757); experiment: Inhibition of CHEK1 (unknown origin) at 500 nM
T2 sequence (whole entry): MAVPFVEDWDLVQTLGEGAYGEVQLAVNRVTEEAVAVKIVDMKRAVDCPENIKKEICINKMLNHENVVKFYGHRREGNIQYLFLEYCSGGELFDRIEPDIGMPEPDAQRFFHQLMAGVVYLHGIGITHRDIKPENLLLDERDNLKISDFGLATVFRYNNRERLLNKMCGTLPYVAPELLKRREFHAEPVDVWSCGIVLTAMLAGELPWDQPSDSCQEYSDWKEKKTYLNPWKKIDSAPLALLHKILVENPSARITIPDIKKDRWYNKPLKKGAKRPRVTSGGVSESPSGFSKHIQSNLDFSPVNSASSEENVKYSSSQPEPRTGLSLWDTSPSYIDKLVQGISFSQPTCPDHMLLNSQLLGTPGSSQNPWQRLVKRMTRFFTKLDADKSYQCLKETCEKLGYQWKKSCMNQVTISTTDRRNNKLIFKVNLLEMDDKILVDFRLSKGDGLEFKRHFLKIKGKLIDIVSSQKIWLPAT

Chain of Vascular endothelial growth factor receptor 3 (Homo sapiens) (P35916 whole entry): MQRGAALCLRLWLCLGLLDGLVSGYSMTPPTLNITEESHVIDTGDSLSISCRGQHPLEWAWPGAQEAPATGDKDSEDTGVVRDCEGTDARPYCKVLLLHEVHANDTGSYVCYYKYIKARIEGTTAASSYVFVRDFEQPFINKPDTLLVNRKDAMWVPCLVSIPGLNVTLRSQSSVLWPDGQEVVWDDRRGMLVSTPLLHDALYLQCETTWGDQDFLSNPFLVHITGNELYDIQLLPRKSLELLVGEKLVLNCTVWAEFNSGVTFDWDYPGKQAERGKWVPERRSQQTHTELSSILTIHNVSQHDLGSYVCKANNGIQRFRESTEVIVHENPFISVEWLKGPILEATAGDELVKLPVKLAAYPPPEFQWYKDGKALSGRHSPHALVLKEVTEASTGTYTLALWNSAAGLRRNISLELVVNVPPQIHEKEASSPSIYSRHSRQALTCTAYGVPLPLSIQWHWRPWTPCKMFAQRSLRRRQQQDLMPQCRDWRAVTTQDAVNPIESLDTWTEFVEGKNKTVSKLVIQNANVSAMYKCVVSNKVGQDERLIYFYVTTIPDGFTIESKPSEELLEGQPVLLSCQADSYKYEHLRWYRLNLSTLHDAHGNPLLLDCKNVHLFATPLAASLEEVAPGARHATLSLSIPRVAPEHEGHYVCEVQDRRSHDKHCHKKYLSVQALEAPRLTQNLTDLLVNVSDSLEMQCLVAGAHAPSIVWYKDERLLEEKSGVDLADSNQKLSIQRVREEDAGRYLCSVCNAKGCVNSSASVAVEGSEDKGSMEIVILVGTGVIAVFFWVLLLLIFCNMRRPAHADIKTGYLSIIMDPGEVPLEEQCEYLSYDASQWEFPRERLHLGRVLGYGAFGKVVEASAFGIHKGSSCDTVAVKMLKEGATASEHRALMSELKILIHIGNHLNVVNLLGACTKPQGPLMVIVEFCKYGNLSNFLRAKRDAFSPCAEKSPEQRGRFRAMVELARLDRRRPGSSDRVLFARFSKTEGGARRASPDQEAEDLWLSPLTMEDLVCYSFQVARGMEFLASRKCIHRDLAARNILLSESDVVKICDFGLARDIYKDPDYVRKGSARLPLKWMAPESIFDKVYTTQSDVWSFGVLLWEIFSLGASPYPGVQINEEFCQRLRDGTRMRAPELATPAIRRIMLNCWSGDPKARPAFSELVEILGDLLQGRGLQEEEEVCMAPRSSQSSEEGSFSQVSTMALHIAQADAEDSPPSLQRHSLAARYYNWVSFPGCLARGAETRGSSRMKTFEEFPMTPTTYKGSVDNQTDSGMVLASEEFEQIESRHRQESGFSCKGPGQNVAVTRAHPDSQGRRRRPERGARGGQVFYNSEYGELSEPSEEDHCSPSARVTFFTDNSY
Chain of Tyrosine-protein kinase Lyn (Homo sapiens) (P07948 2-512 limits assumed): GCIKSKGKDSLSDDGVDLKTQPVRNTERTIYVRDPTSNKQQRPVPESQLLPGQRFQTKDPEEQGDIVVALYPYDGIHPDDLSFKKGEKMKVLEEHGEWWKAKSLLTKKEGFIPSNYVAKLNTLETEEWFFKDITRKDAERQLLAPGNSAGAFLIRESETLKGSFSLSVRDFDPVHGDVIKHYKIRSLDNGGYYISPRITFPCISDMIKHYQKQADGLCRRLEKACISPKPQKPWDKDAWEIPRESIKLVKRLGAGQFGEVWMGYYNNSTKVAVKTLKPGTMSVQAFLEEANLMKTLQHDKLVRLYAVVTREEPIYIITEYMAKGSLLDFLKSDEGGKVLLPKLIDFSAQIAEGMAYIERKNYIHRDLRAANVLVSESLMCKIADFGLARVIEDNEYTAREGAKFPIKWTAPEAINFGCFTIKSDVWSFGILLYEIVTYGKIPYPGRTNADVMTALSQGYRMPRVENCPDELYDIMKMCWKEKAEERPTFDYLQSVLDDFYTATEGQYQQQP
Chain of Receptor tyrosine-protein kinase erbB-2 (Homo sapiens) (P04626 whole entry): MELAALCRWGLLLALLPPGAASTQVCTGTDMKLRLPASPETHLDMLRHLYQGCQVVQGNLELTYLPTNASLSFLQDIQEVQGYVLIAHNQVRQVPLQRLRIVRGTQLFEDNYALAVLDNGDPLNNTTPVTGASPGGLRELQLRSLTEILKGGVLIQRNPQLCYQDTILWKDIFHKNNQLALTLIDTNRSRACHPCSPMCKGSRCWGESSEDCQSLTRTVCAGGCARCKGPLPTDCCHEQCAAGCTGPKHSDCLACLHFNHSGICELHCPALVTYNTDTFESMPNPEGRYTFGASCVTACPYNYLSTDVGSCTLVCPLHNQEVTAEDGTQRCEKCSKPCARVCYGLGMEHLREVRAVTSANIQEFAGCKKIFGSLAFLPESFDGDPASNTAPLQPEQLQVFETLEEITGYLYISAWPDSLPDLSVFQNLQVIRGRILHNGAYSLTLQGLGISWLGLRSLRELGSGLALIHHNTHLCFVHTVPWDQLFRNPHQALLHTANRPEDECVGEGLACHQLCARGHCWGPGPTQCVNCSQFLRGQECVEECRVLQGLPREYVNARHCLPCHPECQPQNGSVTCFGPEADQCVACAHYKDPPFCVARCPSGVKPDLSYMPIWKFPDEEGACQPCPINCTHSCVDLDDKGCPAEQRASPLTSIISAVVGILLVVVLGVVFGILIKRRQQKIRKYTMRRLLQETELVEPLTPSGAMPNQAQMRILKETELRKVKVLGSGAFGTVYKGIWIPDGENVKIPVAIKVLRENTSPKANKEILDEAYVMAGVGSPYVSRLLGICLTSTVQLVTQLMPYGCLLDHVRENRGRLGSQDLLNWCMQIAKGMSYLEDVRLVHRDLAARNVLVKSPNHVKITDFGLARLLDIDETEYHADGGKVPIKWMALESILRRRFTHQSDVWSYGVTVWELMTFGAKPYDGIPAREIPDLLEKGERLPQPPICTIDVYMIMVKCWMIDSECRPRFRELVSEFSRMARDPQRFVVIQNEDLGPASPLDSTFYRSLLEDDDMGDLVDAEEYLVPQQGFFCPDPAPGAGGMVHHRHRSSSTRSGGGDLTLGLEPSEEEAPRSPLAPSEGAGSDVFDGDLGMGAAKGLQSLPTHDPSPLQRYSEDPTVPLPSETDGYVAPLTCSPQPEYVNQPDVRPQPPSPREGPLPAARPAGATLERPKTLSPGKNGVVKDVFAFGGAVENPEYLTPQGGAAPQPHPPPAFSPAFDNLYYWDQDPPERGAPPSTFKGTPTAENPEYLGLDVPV
Chain of Tyrosine-protein kinase JAK2 (Homo sapiens) (O60674 whole entry): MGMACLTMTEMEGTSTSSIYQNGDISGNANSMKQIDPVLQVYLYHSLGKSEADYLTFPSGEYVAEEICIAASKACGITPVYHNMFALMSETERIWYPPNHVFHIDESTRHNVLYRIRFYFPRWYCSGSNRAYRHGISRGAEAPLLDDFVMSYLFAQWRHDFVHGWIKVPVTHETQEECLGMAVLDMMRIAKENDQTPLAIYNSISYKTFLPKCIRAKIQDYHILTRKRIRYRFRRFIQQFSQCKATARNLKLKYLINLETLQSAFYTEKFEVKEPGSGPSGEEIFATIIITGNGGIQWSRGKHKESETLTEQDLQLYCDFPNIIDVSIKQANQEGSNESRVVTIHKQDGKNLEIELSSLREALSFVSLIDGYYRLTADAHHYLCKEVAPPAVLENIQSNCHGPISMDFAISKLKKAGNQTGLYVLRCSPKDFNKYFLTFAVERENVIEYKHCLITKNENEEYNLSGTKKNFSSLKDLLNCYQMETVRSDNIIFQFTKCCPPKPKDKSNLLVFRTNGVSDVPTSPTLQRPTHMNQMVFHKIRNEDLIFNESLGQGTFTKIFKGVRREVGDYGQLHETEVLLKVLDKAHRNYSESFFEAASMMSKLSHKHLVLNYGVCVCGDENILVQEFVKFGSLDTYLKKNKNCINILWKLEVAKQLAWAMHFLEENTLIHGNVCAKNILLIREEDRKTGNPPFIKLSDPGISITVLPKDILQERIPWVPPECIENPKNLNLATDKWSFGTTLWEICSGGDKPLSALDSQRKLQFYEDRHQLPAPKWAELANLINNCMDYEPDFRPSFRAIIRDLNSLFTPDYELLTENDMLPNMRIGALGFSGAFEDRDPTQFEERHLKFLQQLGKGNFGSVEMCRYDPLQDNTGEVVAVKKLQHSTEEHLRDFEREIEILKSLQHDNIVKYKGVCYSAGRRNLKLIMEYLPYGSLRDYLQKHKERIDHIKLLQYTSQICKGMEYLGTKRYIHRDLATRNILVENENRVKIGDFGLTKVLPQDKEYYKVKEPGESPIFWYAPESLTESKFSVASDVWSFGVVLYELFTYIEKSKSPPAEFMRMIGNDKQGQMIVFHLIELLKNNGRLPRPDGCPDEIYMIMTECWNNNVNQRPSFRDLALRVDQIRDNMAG
Chain of Tyrosine-protein kinase CSK (Homo sapiens) (P41240 2-450 limits assumed): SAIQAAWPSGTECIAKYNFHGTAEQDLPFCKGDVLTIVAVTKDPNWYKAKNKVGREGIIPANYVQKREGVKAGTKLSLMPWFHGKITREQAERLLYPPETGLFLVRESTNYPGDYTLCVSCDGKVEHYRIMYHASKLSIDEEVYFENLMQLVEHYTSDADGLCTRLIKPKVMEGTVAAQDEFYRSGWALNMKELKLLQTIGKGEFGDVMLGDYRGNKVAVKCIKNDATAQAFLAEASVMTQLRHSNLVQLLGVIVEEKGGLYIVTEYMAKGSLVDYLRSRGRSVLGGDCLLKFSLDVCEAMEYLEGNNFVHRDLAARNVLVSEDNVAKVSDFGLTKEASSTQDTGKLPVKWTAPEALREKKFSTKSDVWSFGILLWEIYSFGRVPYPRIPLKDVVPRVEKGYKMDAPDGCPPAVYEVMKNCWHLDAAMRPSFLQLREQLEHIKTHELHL
Chain of Mitogen-activated protein kinase 1 (Homo sapiens) (P28482 whole entry): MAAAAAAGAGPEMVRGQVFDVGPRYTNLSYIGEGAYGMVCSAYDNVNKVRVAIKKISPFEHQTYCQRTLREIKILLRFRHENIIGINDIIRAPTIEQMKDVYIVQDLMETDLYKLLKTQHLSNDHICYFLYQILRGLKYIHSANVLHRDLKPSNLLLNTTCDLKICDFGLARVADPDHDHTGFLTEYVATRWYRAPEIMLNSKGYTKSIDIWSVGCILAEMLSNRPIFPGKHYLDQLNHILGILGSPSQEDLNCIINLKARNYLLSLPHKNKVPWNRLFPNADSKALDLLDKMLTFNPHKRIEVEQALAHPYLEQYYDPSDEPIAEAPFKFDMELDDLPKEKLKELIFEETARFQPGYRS

Structure (SMILES): COc1cc(C(N)=O)ccc1-c1cc2c(N[C@H](CO)c3ccccc3)ncnc2s1
inhibition [1]: 12%
inhibition [2]: 0%
inhibition [3]: -10%
inhibition [4]: 40%
inhibition [5]: 10%
inhibition [6]: 6%
inhibition [7]: 5%
inhibition [8]: 5%
inhibition [9]: -2%
inhibition [10]: -8%
inhibition [11]: 8%
inhibition [12]: 12%
inhibition [13]: -9%
inhibition [14]: -3%
inhibition [15]: -4%
inhibition [16]: 7%
inhibition [17]: 40%
inhibition [18]: 42%
inhibition [19]: 25%
inhibition [20]: 47%
inhibition [21]: 3%
inhibition [22]: 13%
inhibition [23]: 13%
inhibition [24]: 37%
inhibition [25]: 6%
inhibition [26]: 62%
IC50 [27]: 1.5 nM
inhibition [28]: 6%

Structure (SMILES): COc1cc(CO)ccc1-c1cc2c(Nc3ccc(F)c(Cl)c3)ncnc2s1
inhibition [1]: 6%
inhibition [2]: 2%
inhibition [3]: -7%
inhibition [4]: 14%
inhibition [5]: 12%
inhibition [6]: -6%
inhibition [7]: -2%
inhibition [8]: 16%
inhibition [9]: -3%
inhibition [10]: 6%
inhibition [11]: -3%
inhibition [12]: 15%
inhibition [13]: -3%
inhibition [14]: -1%
inhibition [15]: 2%
inhibition [16]: 3%
inhibition [17]: 11%
inhibition [18]: 14%
inhibition [19]: 3%
inhibition [20]: 13%
inhibition [21]: 16%
inhibition [22]: 15%
inhibition [23]: 8%
inhibition [24]: 48%
inhibition [25]: 7%
inhibition [26]: 31%
IC50 [27]: 2 nM
inhibition [28]: 4%

Structure (SMILES): COc1cc(CO)ccc1-c1cc2c(N[C@H](CO)c3ccccc3)ncnc2s1
inhibition [1]: 7%
inhibition [2]: 1%
inhibition [3]: 4%
inhibition [4]: 37%
inhibition [5]: 18%
inhibition [6]: 5%
inhibition [7]: 4%
inhibition [8]: 9%
inhibition [9]: 9%
inhibition [10]: 1%
inhibition [11]: 1%
inhibition [29]: 15%
inhibition [12]: 5%
inhibition [14]: 8%
inhibition [16]: 12%
inhibition [17]: 58%
inhibition [18]: 14%
inhibition [19]: 20%
inhibition [20]: 40%
inhibition [21]: 1%
inhibition [22]: 20%
inhibition [23]: 1%
inhibition [24]: 50%
inhibition [25]: 10%
inhibition [26]: 63%
inhibition [28]: 3%

Structure (SMILES): C#Cc1cccc(Nc2ncnc3cc(OCCOC)c(OCCOC)cc23)c1 [ERLOTINIB]
inhibition [2]: 17%
inhibition [3]: -4%
inhibition [7]: -2%
inhibition [8]: 64%
inhibition [9]: 25%
inhibition [10]: -9%
inhibition [11]: -5%
inhibition [29]: -7%
inhibition [12]: 8%
inhibition [14]: -1%
inhibition [17]: 42%
inhibition [20]: 68%
inhibition [21]: -3%
inhibition [25]: 44%
inhibition [26]: 78%
inhibition [28]: 38%

Other lines, results leading:

inhibition [1]: 1%
inhibition [2]: 4%
inhibition [3]: 1%
inhibition [4]: 12%
inhibition [5]: 4%
inhibition [6]: 1%
inhibition [7]: 1%
inhibition [8]: 5%
inhibition [9]: 7%
inhibition [10]: 1%
inhibition [11]: 3%
inhibition [29]: 1%
inhibition [12]: 7%
inhibition [14]: 10%
inhibition [16]: 12%
inhibition [17]: 40%
inhibition [18]: 2%
inhibition [19]: 1%
inhibition [20]: 61%
inhibition [21]: 6%
inhibition [22]: 7%
inhibition [23]: 3%
inhibition [24]: 57%
inhibition [25]: 1%
inhibition [26]: 30%
inhibition [28]: 2%
Structure (SMILES): COc1cc(CO)ccc1-c1cc2c(N[C@H](C)c3ccccc3)ncnc2s1

inhibition [1]: -2%
inhibition [2]: 5%
inhibition [3]: -5%
inhibition [4]: 21%
inhibition [5]: 12%
inhibition [6]: 6%
inhibition [7]: 18%
inhibition [8]: 20%
inhibition [9]: -3%
inhibition [10]: 6%
inhibition [11]: -5%
inhibition [29]: -5%
inhibition [12]: 13%
inhibition [13]: 0%
inhibition [14]: -4%
inhibition [16]: 10%
inhibition [17]: 33%
inhibition [18]: 8%
inhibition [19]: 7%
inhibition [20]: 31%
inhibition [21]: 7%
inhibition [22]: 15%
inhibition [23]: 4%
inhibition [24]: 54%
inhibition [25]: 23%
inhibition [26]: 30%
IC50 [27]: 2 nM
inhibition [28]: 0%
Structure (SMILES): CN(C)CCNC(=O)c1ccc(-c2cc3c(N[C@H](CO)c4ccccc4)ncnc3s2)cc1

inhibition [1]: -6%
inhibition [2]: 9%
inhibition [3]: -4%
inhibition [4]: 20%
inhibition [5]: 15%
inhibition [6]: -3%
inhibition [7]: -7%
inhibition [8]: 26%
inhibition [9]: -2%
inhibition [10]: 2%
inhibition [11]: -3%
inhibition [12]: 18%
inhibition [13]: -3%
inhibition [14]: 0%
inhibition [15]: -1%
inhibition [16]: 10%
inhibition [17]: 25%
inhibition [18]: 17%
inhibition [19]: 11%
inhibition [20]: 24%
inhibition [21]: 15%
inhibition [22]: 28%
inhibition [23]: 9%
inhibition [24]: 32%
inhibition [25]: 10%
inhibition [26]: 22%
IC50 [27]: 14 nM
inhibition [28]: 15%
Structure (SMILES): COc1cc(CO)ccc1-c1cc2c(Nc3ccccc3)ncnc2s1

inhibition [1]: -1%
inhibition [2]: -8%
inhibition [3]: -4%
inhibition [4]: 43%
inhibition [5]: 3%
inhibition [6]: -4%
inhibition [7]: -2%
inhibition [8]: 7%
inhibition [9]: -4%
inhibition [10]: 2%
inhibition [11]: 0%
inhibition [29]: -8%
inhibition [12]: 3%
inhibition [13]: -2%
inhibition [14]: 5%
inhibition [16]: 10%
inhibition [17]: 71%
inhibition [19]: 7%
inhibition [20]: 57%
inhibition [21]: 3%
inhibition [22]: 15%
inhibition [23]: 3%
inhibition [24]: 63%
inhibition [25]: -2%
inhibition [26]: 46%
IC50 [27]: 0.5 nM
inhibition [28]: 6%
Structure (SMILES): COc1ccc(C(=O)NCCN(C)C)cc1-c1cc2c(N[C@H](C)c3ccccc3)ncnc2s1
